Test results: US4694004A, “Semicarbazide derivatives, processes for preparation thereof and pharmaceutical composition comprising the same” (Fujisawa Pharmaceutical Co., Ltd., priority 1984, dated 1987)

What was measured:
[1] = tested on: writhing syndrome induced by acetic acid; test: Acetic Acid Induced Writhing (analgesic activity); type: in vivo, male ddY strain mice; conditions: Dose: 32 mg/kg, orally 60 minutes before 0.6% acetic acid i.p.; observed from 3 to 13 minutes; mice
Experimental: (1) Acetic Acid Induced Writhing
Ten male ddY strain mice were used per group. To estimate the frequency of writhing syndrome, the animals were observed from 3 to 13 minutes after an intraperitoneal injection of 0.2 ml/10 g of 0.6% acetic acid. The drugs were given orally 60 minutes before acetic acid. The frequency of writhing syndrome in the treated animals was compared with that in the nontreated control animals.

[2] = tested on: Paw edema induced by carrageenin; test: Carrageenin Foot Edema (antiinflammatory activity); type: in vivo, male Sprague-Dawley rats; conditions: Dose: 32 mg/kg, orally 60 minutes before phlogogen; edema volume 3 hours after 1% carrageenin; rats
Experimental: (1) Carrageenin Foot Edema
Five male Sprague-Dawley rats weighing about 200 g were used per group.
Paw edema was induced by subplantar injection of 1% carrageenin (0.1 ml/rat) into the right hind paw. The test drug was suspended in 0.5% methylcellulose and administered orally 60 minutes before phlogogen. Paw volume was measured with plethysmometer (Ugo Bazil Co., Ltd.) by water displacement immersing the paw to the lateral malleolus. The difference of paw volume before and 3 hours after the phlogogen was designated as edema volume.
The data were analyzed statistically by student's t-test.

Structure (SMILES)	Inhibition (%) of acetic acid induced writhing [1] [%]	Inhibition (%) of carrageenin foot edema [2] [%]
O=C(Nc1ccncc1)NN1CC=CCC1 [Compound A, N-[(4-Pyridylcarbamoyl)amino]-1,2,3,6-tetrahydropyridine]	73.4	41.4
O=C(Nc1cccnc1)NN1CC=CCC1 [Compound B, N-[(3-Pyridylcarbamoyl)amino]-1,2,3,6-tetrahydropyridine]	95.5	45.9
O=C(Nc1ccccn1)NN1CC=CCC1 [Compound C, N-[(2-Pyridylcarbamoyl)amino]-1,2,3,6-tetrahydropyridine]		50.9
O=C(Nc1ccncn1)NN1CC=CCC1 [Compound D, N-[(4-Pyrimidinylcarbamoyl)amino]-1,2,3,6-tetrahydropyridine]	68.5	48.0
O=C(Nc1cnccn1)NN1CC=CCC1 [Compound E, N-(Pyrazinylcarbamoylamino)-1,2,3,6-tetrahydropyridine]		54.7
O=C(Nc1ccc(Cl)nc1)NN1CC=CCC1 [Compound F, N-[[(2-Chloropyridin-5-yl)carbamoyl]amino]-1,2,3,6-tetrahydropyridine]	75.1	49.9
O=C(NN1CC=CCC1)NN1CCCC1 [Compound G, N-[(1-Pyrrolidinylcarbamoyl)amino]-1,2,3,6-tetrahydropyridine]	84.7	
O=C(NN1CC=CCC1)NN1CC=CCC1 [Compound H, N,N'-[Bis-(1,2,3,6-tetrahydropyridin-1-yl)]urea]	82.0	
